The results in this text go back to patent publication US4591605A, “Method and ingestible formulation for inhibiting the secretion of stomach acid” (Research Foundation of State University of New York, priority 1982, dated 1986).

The subject of assay [1] is gastric (H^+ +K^+)-ATPase. The settings on record: vesicles preequilibrated in 150 mM KCl with 0.5 mM compound for 48 hours.
Protocol: The gastric microsomal membranes were harvested. All procedures were carried out at 0°-4° C. Briefly, the fundic mucosa from the pig was desquamated and scraped to collect the oxyntic cell-enriched fractions. The mucosal scraping was homogenized gently in a medium consisting of 250 mM sucrose, 0.2 mM EDTA, and 0.2 mM Pipes buffer (pH 6.8) using a loose pestle homogenizer. The homogenate was centrifuged at 8000 g for 5 min. The process was repeated three times. All the supernatants were pooled together and layered over 40 ml of 37% sucrose in 84-ml capacity screw cap tubes and centrifuged at 100,000 g for 5 hours. The microsomal membrane bands appeared at the interface of soluble supernatant and 37% sucrose. The microsomal vesicle bands were collected, diluted with homogenizing medium, and centrifuged at 100,000 g for 90 min. The pellet was suspended in the homogenizing medium with a protein concentration of 0.5 mg/ml. The collected cellular vesicules were inverted, i.e., the interior of the vesicules originally faced the lumen side of the stomach. Vesicular accumulation of H^+ was measured at room temperature. The method uses the change in fluorescence intensity (quenching) of 9-amino-acridine or acridine orange which is proportional to the amount of dye taken up by the microsomes. The amount of dye taken up is a sensitive measure of intravesicular H^+ concentration. […]
The test system of assay [2] is histamine stimulated bullfrog gastric mucosa. Kind of assay: H+ secretion by histamine-stimulated bullfrog gastric mucosa (chambered mucosa, titration). Details: species or system bullfrogs (Rana catesbeiana). The settings on record: for activity at 500 µM: Aquarana catesbeiana, 0.5 mM drug in the secretory solution, histamine stimulated steady-state H+ secretory rate, mean ±SEM, read-out: Rate of H^+ transport (% of control); for reversibility of the inhibition of H^+ transport by elevation of secretory K^+: K+ substituted for Na+ of the secretory solution; for inhibitory effect relative to the other polyamine: spermine versus spermidine. Here is the method: This experiment was carried out with gastric mucosa from bullfrogs (Rana catesbeiana). […] The area of the mounted mucosae was 1.5 cm^2. The bathing solutions were bubbled continuously with […] -5% CO2.
The normal nutrient soliution had the following composition (in mM): NaCl 87, KCl 4, CaCl2 2, MgCl2 1, KH2 PO4 1, NaHCO3 18, and glucose 11.
All experiments were conducted under open-circuit conditions at room temperature. The mucosal solutions were collected at 15-minute intervals and placed in thoroughly washed plastic vials. The K^+ content of the secretory medium was determined by atomic absorption spectrophotometer (model 360 Perkin-Elmer). The H^+ secretion was quantitated by titration using 1 mM NaOH to pH 6.5 while gassing with 100% N2.
The H^+ secretory rates are the steady-stage values before (None) and after addition of the drugs attained by the histamine stimulated mucosa. Values are mean ±SEM.

For the molecule `NCCCNCCCCNCCCN` [Spermine, spermine], the “H^+ uptake by the vesicles” value in assay [1] was “totally obliterated”. Besides, in assay [2] (0.25 mM in secretory solution (lumen side), inhibition increased with concentration), the “inhibition of H^+ transport, added into the secretory solution” value is “remarkable inhibition of H^+ transport”. In addition, the “rate of H^+ transport in K+-depleted mucosa” value in assay [2] (1 mM together with 10 mM K+ in the secretory solution, within 30 min) is recorded as “near zero”. In assay [2] (1 mM with 10 mM K+ in secretory solution, then K+ elevated), the “reversibility of inhibition by elevation of secretory K^+ in K+-depleted mucosa” value is “could be reversed”. Besides, the “effect on H^+ transport, added to nutrient solution” value in assay [2] (0.5 and 1.0 mM, from the nutrient side) was “did not have any appreciable effect”. In addition, in assay [2], the activity at 500 µM stood at 28 ± 6%, the “reversibility of the inhibition of H^+ transport by elevation of secretory K^+” value is “completely reversible” and the “inhibitory effect relative to the other polyamine” value was “more potent than spermidine”.
Regarding `NCCCCNCCCN` [Spermidine, spermidine], in assay [2], the activity at 500 µM is 55 ± 2%, the “reversibility of the inhibition of H^+ transport by elevation of secretory K^+” value is reported as “could also be reversed” and the “inhibitory effect relative to the other polyamine” value is “much lower than spermine”. The “inhibition of gastric H^+ transport, added into the nutrient solution” value in assay [2] (nutrient solution, concentration not given) is reported as “not into the nutrient solution”. The “inhibition of gastric H^+ transport, added into the secretory solution” value in assay [2] (secretory solution, concentration not given) is “inhibits gastric H^+ transport”.
Consider `NCCCCN` [Putrescine, putrescine, reference compound], for which the activity at 500 µM in assay [2] turned out to be 95 ± 10%.
